In PubChem BioAssay AID1259407 (Chemical Carcinogenesis Research Information System (CCRIS), 2018):
Calls of active or inactive are those of the source. No rule for the calls is given here.

Tested on: CCRIS mutagenicity, Ames/micronucleus/aberration tests
Experiment: CCRIS mutagenicity studies

CC(C)N=C=NC(C)C
mutagenic call (End Point: In vivo micronucleus, Test System: Bone marrow polychromatic erythrocytes, Species: Mouse, Strain/Sex: B6C3F1/Male, Route: Intraperitoneal): inactive; negative
mutagenic call (End Point: In vivo micronucleus, Test System: Bone marrow polychromatic erythrocytes, Species: Rat, Strain/Sex: F344/N/Male, Route: Intraperitoneal): inactive; negative
mutagenic call (End Point: In vivo micronucleus, Test System: Peripheral blood erythrocytes, Species: Mouse, Strain/Sex: B6C3F1/Female, Route: Dermal): active; positive; 100% mortality at 280 mg/kg
mutagenic call (End Point: In vivo micronucleus, Test System: Peripheral blood erythrocytes, Species: Mouse, Strain/Sex: B6C3F1/Male, Route: Dermal): active; positive; 100% mortality at 280 mg/kg
mutagenic call (End Point: In vivo micronucleus, Test System: Peripheral blood normochromatic and polychromatic erythrocytes and bone marrow polychromatic erythrocytes, Species: Mouse, Strain/Sex: B6C3F1/Male, Route: Dermal): inactive; positive (peripheral blood); negative (bone marrow)
mutagenic call (End Point: In vivo micronucleus, Test System: Polychromatic erythrocytes (Bone marrow and peripheral blood), Species: Mouse, Strain/Sex: B6C3F1/Male, Route: Intraperitoneal): active; positive in peripheral blood polychromatic erythrocytes; no significant increase
mutagenic call (Test System: AMES SALMONELLA TYPHIMURIUM, Strain/Indicator: TA98, Metabolic Activation: HAMSTER, LIVER, S-9, AROCLOR 1254, Method: STANDARD PLATE): inactive; negative
mutagenic call (Test System: AMES SALMONELLA TYPHIMURIUM, Strain/Indicator: TA98, Metabolic Activation: NONE, Method: STANDARD PLATE): inactive; negative
mutagenic call (Test System: AMES SALMONELLA TYPHIMURIUM, Strain/Indicator: TA98, Metabolic Activation: RAT, LIVER, S-9, AROCLOR 1254, Method: STANDARD PLATE): inactive; negative
mutagenic call (Test System: AMES SALMONELLA TYPHIMURIUM, Strain/Indicator: TA100, Metabolic Activation: HAMSTER, LIVER, S-9, AROCLOR 1254, Method: STANDARD PLATE): inactive; negative
mutagenic call (Test System: AMES SALMONELLA TYPHIMURIUM, Strain/Indicator: TA100, Metabolic Activation: NONE, Method: STANDARD PLATE): inactive; negative
mutagenic call (Test System: AMES SALMONELLA TYPHIMURIUM, Strain/Indicator: TA100, Metabolic Activation: RAT, LIVER, S-9, AROCLOR 1254, Method: STANDARD PLATE): inactive; negative
mutagenic call (Test System: AMES SALMONELLA TYPHIMURIUM, Strain/Indicator: TA1535, Metabolic Activation: HAMSTER, LIVER, S-9, AROCLOR 1254, Method: STANDARD PLATE): inactive; negative
mutagenic call (Test System: AMES SALMONELLA TYPHIMURIUM, Strain/Indicator: TA1535, Metabolic Activation: NONE, Method: STANDARD PLATE): inactive; negative
mutagenic call (Test System: AMES SALMONELLA TYPHIMURIUM, Strain/Indicator: TA1535, Metabolic Activation: RAT, LIVER, S-9, AROCLOR 1254, Method: STANDARD PLATE): inactive; negative
mutagenic call (Test System: AMES SALMONELLA TYPHIMURIUM, Strain/Indicator: TA1537, Metabolic Activation: HAMSTER, LIVER, S-9, AROCLOR 1254, Method: STANDARD PLATE): inactive; negative
mutagenic call (Test System: AMES SALMONELLA TYPHIMURIUM, Strain/Indicator: TA1537, Metabolic Activation: NONE, Method: STANDARD PLATE): inactive; negative
mutagenic call (Test System: AMES SALMONELLA TYPHIMURIUM, Strain/Indicator: TA1537, Metabolic Activation: RAT, LIVER, S-9, AROCLOR 1254, Method: STANDARD PLATE): inactive; negative
mutagenic call (Test System: AMES SALMONELLA TYPHIMURIUM, Strain/Indicator: TA1538, Metabolic Activation: HAMSTER, LIVER, S-9, AROCLOR 1254, Method: STANDARD PLATE): inactive; negative
mutagenic call (Test System: AMES SALMONELLA TYPHIMURIUM, Strain/Indicator: TA1538, Metabolic Activation: NONE, Method: STANDARD PLATE): inactive; negative
mutagenic call (Test System: AMES SALMONELLA TYPHIMURIUM, Strain/Indicator: TA1538, Metabolic Activation: RAT, LIVER, S-9, AROCLOR 1254, Method: STANDARD PLATE): inactive; negative
mutagenic call (Test System: Ames Salmonella typhimurium, Strain/Indicator: TA97, Metabolic Activation: None, Method: Preincubation): inactive; negative
mutagenic call (Test System: Ames Salmonella typhimurium, Strain/Indicator: TA97, Metabolic Activation: Rat, liver, S-9, Aroclor 1254, Method: Preincubation): inactive; negative
mutagenic call (Test System: Ames Salmonella typhimurium, Strain/Indicator: TA97, Metabolic Activation: Syrian hamster, liver, S-9, Aroclor 1254, Method: Preincubation): inactive; negative
mutagenic call (Test System: Ames Salmonella typhimurium, Strain/Indicator: TA98, Metabolic Activation: None, Method: Preincubation): inactive; negative
mutagenic call (Test System: Ames Salmonella typhimurium, Strain/Indicator: TA98, Metabolic Activation: Rat, liver, S-9, Aroclor 1254, Method: Preincubation): inactive; negative
mutagenic call (Test System: Ames Salmonella typhimurium, Strain/Indicator: TA98, Metabolic Activation: Syrian hamster, liver, S-9, Aroclor 1254, Method: Preincubation): inactive; negative
mutagenic call (Test System: Ames Salmonella typhimurium, Strain/Indicator: TA100, Metabolic Activation: None, Method: Preincubation): inactive; negative
mutagenic call (Test System: Ames Salmonella typhimurium, Strain/Indicator: TA100, Metabolic Activation: Rat, liver, S-9, Aroclor 1254, Method: Preincubation): inactive; negative
mutagenic call (Test System: Ames Salmonella typhimurium, Strain/Indicator: TA100, Metabolic Activation: Syrian hamster, liver, S-9, Aroclor 1254, Method: Preincubation): inactive; negative
mutagenic call (Test System: Ames Salmonella typhimurium, Strain/Indicator: TA1535, Metabolic Activation: None, Method: Preincubation): inactive; negative
mutagenic call (Test System: Ames Salmonella typhimurium, Strain/Indicator: TA1535, Metabolic Activation: Rat, liver, S-9, Aroclor 1254, Method: Preincubation): inactive; negative
mutagenic call (Test System: Ames Salmonella typhimurium, Strain/Indicator: TA1535, Metabolic Activation: Syrian hamster, liver, S-9, Aroclor 1254, Method: Preincubation): inactive; negative
mutagenic call (Test System: MOUSE LYMPHOMA, Strain/Indicator: L5178Y (TK+/TK-), Metabolic Activation: NONE, Method: SUSPENSION/PLATE): active; positive. reevaluation of results: positive
mutagenic call (Test System: MOUSE LYMPHOMA, Strain/Indicator: L5178Y (TK+/TK-), Metabolic Activation: RAT, LIVER, S-9, AROCLOR 1254, Method: SUSPENSION/PLATE): active; positive. reevaluation of results: positive

Cc1cc2c3ccccc3ccc2c2ccccc12
mutagenic call (Test System: AMES SALMONELLA TYPHIMURIUM, Strain/Indicator: TA98, Metabolic Activation: RAT, LIVER, CYTOSOL, AROCLOR 1254, Method: STANDARD PLATE): inactive; negative
mutagenic call (Test System: AMES SALMONELLA TYPHIMURIUM, Strain/Indicator: TA98, Metabolic Activation: RAT, LIVER, MICROSOMES, AROCLOR 1254, Method: STANDARD PLATE): inactive; negative
mutagenic call (Test System: AMES SALMONELLA TYPHIMURIUM, Strain/Indicator: TA100, Metabolic Activation: RAT, LIVER, MICROSOMES, 6-METHYLCHRYSENE, Method: STANDARD PLATE): inactive; negative
mutagenic call (Test System: AMES SALMONELLA TYPHIMURIUM, Strain/Indicator: TA100, Metabolic Activation: RAT, LIVER, MICROSOMES, AROCLOR 1254, Method: STANDARD PLATE): inactive; negative
mutagenic call (Test System: AMES SALMONELLA TYPHIMURIUM, Strain/Indicator: TA100, Metabolic Activation: RAT, LIVER, MICROSOMES, Method: STANDARD PLATE): inactive; negative
